Assay results as given in paper PMC8766476, “Repurposing the Pathogen Box compounds for identification of potent anti-malarials against blood stages of Plasmodium falciparum with PfUCHL3 inhibitory activity” (Scientific Reports, 2022).
Read-outs that look alike come from different tables or passages of the source.

Target: T1, PfUCHL3 (Plasmodium falciparum, UniProt Q8IKM8)
T1 construct: gene UCHL3
Experiment: fluorimetric Ub-AMC deubiquitinase assay with recombinant purified PfUCHL3, dose-response
Type: biochemical

T1 sequence (Q8IKM8 whole entry): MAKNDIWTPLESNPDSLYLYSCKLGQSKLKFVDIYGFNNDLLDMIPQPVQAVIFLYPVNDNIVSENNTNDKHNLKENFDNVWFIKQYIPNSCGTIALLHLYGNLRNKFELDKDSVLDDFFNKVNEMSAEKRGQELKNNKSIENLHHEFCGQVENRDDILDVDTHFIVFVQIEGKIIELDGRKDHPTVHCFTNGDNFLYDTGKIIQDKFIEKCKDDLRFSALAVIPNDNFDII

SMILES	IC50 (read-out: IC50) [µM]	IC50 [µM]
Cc1cc2nc(NC(=O)C(C)(C)C)nc(Cl)c2n1Cc1ccc(Cl)cc1 [compound 2, MMV688704]	87.1 ± 1.75	–
CC1COC2(CCN(c3nc(=O)c4cc(C(F)(F)F)cc([N+](=O)[O-])c4s3)CC2)O1 (centres unmarked) [compound 1, MMV676603]	–	25.1 ± 1.8
